Values joined by “and” are separate entries in the source; they are usually repeats but may differ in a detail not shown here. Equal entries are not always repeated. Active and inactive are the calls of the source. How the calls were made is not given here.
Tested on: rodent lifetime carcinogenesis bioassay, tumor incidence TD50
Assay: carcinogenic potency in animals, long-term in vivo studies, CPDB compilation (AID 1745844)

COc1ccc([N+](=O)[O-])cc1N=Nc1c(O)c(C(=O)Nc2cccc([N+](=O)[O-])c2)cc2ccccc12
TD50 (mouse, strain B6C3F1, females, in feed, site: any site (literature study), lesion: several types, types named in the paper, dosed 103 weeks, study length 103 weeks): 29700 mg/kg/day (inactive)
TD50 (mouse, strain B6C3F1, females, in feed, site: lung, lesion: alveolar/bronchiolar adenoma + alveolar/bronchiolar carcinoma, dosed 103 weeks, study length 103 weeks): 45200 mg/kg/day
TD50 (mouse, strain B6C3F1, males, in feed, site: any site (literature study), lesion: several types, types named in the paper, dosed 103 weeks, study length 103 weeks): 20200 mg/kg/day (inactive)
TD50 (mouse, strain B6C3F1, males, in feed, site: liver, lesion: hepatocellular adenoma + hepatocellular carcinoma + neoplastic nodule, dosed 103 weeks, study length 103 weeks): 15100 mg/kg/day
TD50 (mouse, strain B6C3F1, males, in feed, site: lung, lesion: alveolar/bronchiolar adenoma + alveolar/bronchiolar carcinoma, dosed 103 weeks, study length 103 weeks): 112000 mg/kg/day
carcinogen call (rat, strain Fischer 344, females, in feed, site: any site (literature study), lesion: several types, types named in the paper, dosed 103 weeks, study length 104 weeks): negative (inactive)
TD50 (rat, strain Fischer 344, males, in feed, site: kidney, lesion: tubule adenoma + tubule carcinoma, dosed 103 weeks, study length 104 weeks): 19800 mg/kg/day and 16300 mg/kg/day

C=CCN(CC(C)O)N=O (stereo unspecified)
TD50 (rat, strain Fischer 344, females, in drinking water, site: esophagus, lesion: several types, types named in the paper, dosed 50 weeks, study length 65 weeks): 4.67 mg/kg/day
TD50 (rat, strain Fischer 344, females, in drinking water, site: liver, lesion: hepatocellular carcinoma, dosed 50 weeks, study length 65 weeks): 1.38 mg/kg/day
TD50 (rat, strain Fischer 344, females, in drinking water, site: nasal cavity, lesion: several types, types named in the paper, dosed 50 weeks, study length 65 weeks): 0.877 mg/kg/day

OCC(CO)N[C@H]1C[C@](O)(CO)[C@@H](O)[C@H](O)[C@H]1O
carcinogen call (mouse, strain Charles River CD1, females, by gavage, site: liver, lesion: hepatocellular adenoma, dosed 101 weeks, study length 101 weeks): negative (inactive)
carcinogen call (mouse, strain Charles River CD1, females, by gavage, site: lung, lesion: alveolar/bronchiolar adenoma, dosed 101 weeks, study length 101 weeks): negative (inactive)
carcinogen call (mouse, strain Charles River CD1, males, by gavage, site: liver, lesion: hepatocellular adenoma, dosed 83 weeks, study length 83 weeks): negative (inactive)
carcinogen call (mouse, strain Charles River CD1, males, by gavage, site: liver, lesion: hepatocellular carcinoma, dosed 83 weeks, study length 83 weeks): negative (inactive)
TD50 (mouse, strain Charles River CD1, males, by gavage, site: lung, lesion: alveolar/bronchiolar adenoma, dosed 83 weeks, study length 83 weeks): 1370 mg/kg/day (inactive)
carcinogen call (rat, strain F344/DuCrj, females, by gavage, site: liver, lesion: one or several types, types not named, dosed 104 weeks, study length 104 weeks): negative (inactive)
TD50 (rat, strain F344/DuCrj, females, by gavage, site: mammary gland, lesion: fibroadenoma, dosed 104 weeks, study length 104 weeks): 119 mg/kg/day (inactive)
TD50 (rat, strain F344/DuCrj, males, by gavage, site: liver, lesion: hepatocellular adenoma, dosed 104 weeks, study length 104 weeks): 575 mg/kg/day (inactive)
TD50 (rat, strain F344/DuCrj, males, by gavage, site: liver, lesion: hepatocellular carcinoma, dosed 104 weeks, study length 104 weeks): 1740 mg/kg/day (inactive)
TD50 (rat, strain F344/DuCrj, males, by gavage, site: testis, lesion: interstitial-cell tumor, dosed 104 weeks, study length 104 weeks): 9.27 mg/kg/day (inactive)

COC(=O)C1=CCCN(N=O)C1
TD50 (rat, strain Fischer 344, males, in drinking water, site: pancreas, exocrine, lesion: acinar-cell adenoma, dosed 128 weeks, study length 128 weeks): 7.95 mg/kg/day

CC=CCl
TD50 (mouse, strain Ha/ICR, females, by gavage, site: forestomach, lesion: one or several types, types not named, dosed 89 weeks, study length 89 weeks): 5.05 mg/kg/day
TD50 (mouse, strain Ha/ICR, males, by gavage, site: forestomach, lesion: one or several types, types not named, dosed 89 weeks, study length 89 weeks): 16.7 mg/kg/day

O=Cc1ccco1
carcinogen call (hamster, strain Syrian Golden, females, inhaled, site: liver, lesion: one or several types, types not named, dosed 52 weeks, study length 81 weeks): negative (inactive)
carcinogen call (hamster, strain Syrian Golden, females, inhaled, site: lung, lesion: one or several types, types not named, dosed 52 weeks, study length 81 weeks): negative (inactive)
carcinogen call (hamster, strain Syrian Golden, males, inhaled, site: liver, lesion: one or several types, types not named, dosed 52 weeks, study length 81 weeks): negative (inactive)
carcinogen call (hamster, strain Syrian Golden, males, inhaled, site: lung, lesion: one or several types, types not named, dosed 52 weeks, study length 81 weeks): negative (inactive)
TD50 (mouse, strain B6C3F1, females, by gavage, site: forestomach, lesion: squamous-cell papilloma, dosed 103 weeks, study length 104 weeks): 920 mg/kg/day
TD50 (mouse, strain B6C3F1, females, by gavage, site: liver, lesion: hepatocellular adenoma + hepatocellular carcinoma + neoplastic nodule, dosed 103 weeks, study length 104 weeks): 377 mg/kg/day
TD50 (mouse, strain B6C3F1, females, by gavage, site: liver, lesion: hepatocellular adenoma + hepatocellular carcinoma, dosed 103 weeks, study length 104 weeks): 377 mg/kg/day
TD50 (mouse, strain B6C3F1, females, by gavage, site: liver, lesion: hepatocellular adenoma, dosed 103 weeks, study length 104 weeks): 364 mg/kg/day
TD50 (mouse, strain B6C3F1, males, by gavage, site: any site (literature study), lesion: several types, types named in the paper, dosed 103 weeks, study length 104 weeks): 165 mg/kg/day
TD50 (mouse, strain B6C3F1, males, by gavage, site: kidney cortex, lesion: adenoma + carcinoma, dosed 103 weeks, study length 104 weeks): 1400 mg/kg/day
TD50 (mouse, strain B6C3F1, males, by gavage, site: liver, lesion: hepatocellular adenoma + hepatocellular carcinoma + neoplastic nodule, dosed 103 weeks, study length 104 weeks): 135 mg/kg/day
TD50 (mouse, strain B6C3F1, males, by gavage, site: liver, lesion: hepatocellular adenoma + hepatocellular carcinoma, dosed 103 weeks, study length 104 weeks): 135 mg/kg/day
TD50 (mouse, strain B6C3F1, males, by gavage, site: liver, lesion: hepatocellular adenoma, dosed 103 weeks, study length 104 weeks): 207 mg/kg/day
TD50 (mouse, strain B6C3F1, males, by gavage, site: liver, lesion: hepatocellular carcinoma, dosed 103 weeks, study length 104 weeks): 219 mg/kg/day
TD50 (mouse, strain B6C3F1, males, by gavage, site: lung, lesion: alveolar/bronchiolar adenoma + alveolar/bronchiolar carcinoma, dosed 103 weeks, study length 104 weeks): 662 mg/kg/day
TD50 (mouse, strain B6C3F1, males, by gavage, site: subcutaneous tissue, lesion: fibrosarcoma + fibroma + sarcoma, dosed 103 weeks, study length 104 weeks): 169 mg/kg/day
TD50 (mouse, strain B6C3F1, males, by gavage, site: subcutaneous tissue, lesion: fibrosarcoma + fibroma, dosed 103 weeks, study length 104 weeks): 190 mg/kg/day
TD50 (mouse, strain B6C3F1, males, by gavage, site: subcutaneous tissue, lesion: fibrosarcoma + sarcoma, dosed 103 weeks, study length 104 weeks): 187 mg/kg/day
TD50 (mouse, strain B6C3F1, males, by gavage, site: subcutaneous tissue, lesion: fibrosarcoma, dosed 103 weeks, study length 104 weeks): 212 mg/kg/day
TD50 (rat, strain Fischer 344, females, by gavage, site: any site (literature study), lesion: several types, types named in the paper, dosed 103 weeks, study length 105 weeks): 194 mg/kg/day (inactive)
TD50 (rat, strain Fischer 344, males, by gavage, site: any site (literature study), lesion: several types, types named in the paper, dosed 103 weeks, study length 105 weeks): 150 mg/kg/day
TD50 (rat, strain Fischer 344, males, by gavage, site: liver, lesion: cholangiocarcinoma, dosed 103 weeks, study length 105 weeks): 683 mg/kg/day

Oc1cccc(O)c1
TD50 (mouse, strain B6C3F1, females, by gavage, site: any site (literature study), lesion: several types, types named in the paper, dosed 104 weeks, study length 104 weeks): 1880 mg/kg/day (inactive)
TD50 (mouse, strain B6C3F1, females, by gavage, site: liver, lesion: hepatocellular adenoma + hepatocellular carcinoma + neoplastic nodule, dosed 104 weeks, study length 104 weeks): 1560 mg/kg/day
TD50 (mouse, strain B6C3F1, females, by gavage, site: lung, lesion: alveolar/bronchiolar adenoma + alveolar/bronchiolar carcinoma, dosed 104 weeks, study length 104 weeks): 1350 mg/kg/day
carcinogen call (mouse, strain B6C3F1, males, by gavage, site: any site (literature study), lesion: several types, types named in the paper, dosed 104 weeks, study length 104 weeks): negative (inactive)
TD50 (mouse, strain B6C3F1, males, by gavage, site: lung, lesion: alveolar/bronchiolar adenoma + alveolar/bronchiolar carcinoma, dosed 104 weeks, study length 104 weeks): 6800 mg/kg/day
TD50 (rat, strain Fischer 344, females, by gavage, site: any site (literature study), lesion: several types, types named in the paper, dosed 103 weeks, study length 104 weeks): 219 mg/kg/day (inactive)
TD50 (rat, strain Fischer 344, males, by gavage, site: any site (literature study), lesion: several types, types named in the paper, dosed 103 weeks, study length 104 weeks): 213 mg/kg/day
TD50 (rat, strain Fischer 344, males, by gavage, site: testis, lesion: interstitial-cell adenoma, dosed 103 weeks, study length 104 weeks): 84 mg/kg/day (inactive)

Cn1cnc2nc(N)[nH]c(=O)c21
TD50 (rat, strain BR 46, both sexes, i.v., site: any site (literature study), lesion: malignant tumor, dosed 106 weeks, study length 126 weeks): 8.24 mg/kg/day (inactive)

CCN(CC(F)(F)F)N=O
TD50 (rat, strain Sprague-Dawley, males, by gavage, site: esophagus, lesion: papillary carcinoma, dosed 88 weeks, study length 88 weeks): 2.52 mg/kg/day
TD50 (rat, strain Sprague-Dawley, males, by gavage, site: nasal cavity, lesion: several types, types named in the paper, dosed 88 weeks, study length 88 weeks): 7.34 mg/kg/day

Source: PubChem BioAssay AID1745844 (Carcinogenic Potency Database (CPDB), 2022)
